In patent publication EP4104902B1, “COMPOUNDS AND M[…] SAME” (priority 2020, dated 2021) one finds IC50 data, which are given here for 58 compounds.

One test deals with recombinant rabies virus 1088 strain expressing Gaussia Luciferase (GLuc) (1088/GLuc). The test is classed as cell-based. The note with it: read-out: Anti-rabies activity.
In the case of `N=C(N)NCCCNC(=O)[C@]12NC[C@@H]3C[C@H]1CN(Cc1cccc4ccccc14)[C@H]2[C@@H]3Cc1ccccc1` (relative stereo) [IB-351], the IC50 was 10 to 30 µM.

In the case of `CC(C)CC[C@@H]1[C@@H]2[C@@H]3CN[C@@]1(C(=O)NCCO)C[C@@H]3CN2Cc1ccc(F)cc1` (relative stereo) [IF-490], the IC50 is 10 to 30 µM.

Consider `CC(C)CC1C2C3C=NC1(C(=O)NCc1ccccc1)CC3CN2Cc1ccc(N(C)C)cc1` (centres unmarked) [IIF-94], for which the IC50 fell in the range of 5 to 10 µM.

As for `CC(C)CCNC(=O)[C@@]12C[C@@H]3CN(Cc4ccc(F)cc4)[C@@H]([C@@H]3CN1)[C@H]2Cc1ccccc1` (relative stereo) [IF-584], the IC50 is less than 5 µM.

With `O=C(NCc1ccc(O)cc1)[C@@]12C[C@@H]3CN(CC4CCCCC4)[C@@H]([C@@H]3CN1)[C@H]2CCc1ccccc1` (relative stereo) [IF-475], the IC50 was in the range of 10 to 30 µM.

`O=C(NCc1ccc(F)cc1)C12NCC3CC1CN(CCO)C2C3Cc1cccc2ccccc12` (centres unmarked) [IB-831]: the IC50 is less than 5 µM.

In the case of `CCOc1ccc(CN2CC3CC4CNC3(C(=O)NCc3ccccc3)C2C4CC(C)C)cc1` (centres unmarked) [IB-878], the IC50 was in the range of 10 to 30 µM.

Regarding `CC(C)CCN1C[C@@H]2C[C@H]3CN[C@]2(C(=O)NCCC(=O)O)[C@@H]1[C@@H]3CC(C)C` (relative stereo) [IB-611], the IC50 is 10 to 30 µM.

With `CC(C)CC1C2CNC3(C(=O)NCc4ccc(Cl)cc4)C(C2)CN(CC(C)C)C13` (centres unmarked) [IB-871], the IC50 was in the range of 10 to 30 µM.

`O=C(NCCc1ccccc1)C12NCC3CC1CN(CC1CCCCC1)C2C3Cc1ccccc1` (centres unmarked) [IB-484]: the IC50 is less than 5 µM.

Regarding `CC(C)CC1C2CNC3(C(=O)NCc4ccccc4)C(C2)CN(Cc2ccc(C(C)(C)C)cc2)C13` (centres unmarked) [IB-874], the IC50 is 5 to 10 µM.

Take `CC(C)CCN1C[C@@H]2C[C@H]3CN[C@]2(C(=O)NCC(C)C)[C@@H]1[C@@H]3CC(C)C` (relative stereo) [IB-753]: the IC50 is less than 5 µM.

For the compound `NC(=O)CCNC(=O)C12NCC3CC1CN(Cc1cccc4ccccc14)C2C3Cc1ccc(O)cc1` (centres unmarked) [IB-521], the IC50 lay in the range of 10 to 30 µM.

Regarding `CC(C)CCN1C[C@@H]2C[C@H]3CN[C@]2(C(=O)NCCO)[C@@H]1[C@@H]3Cc1cccc2ccccc12` (relative stereo) [IB-659], the IC50 was less than 5 µM.

Turning to `CC(C)CNC(=O)[C@]12NC[C@@H]3C[C@H]1CN(Cc1ccccc1)[C@H]2[C@@H]3CCCNC(=N)N` (relative stereo) [IB-198], the IC50 was in the range of 10 to 30 µM.

For `CC(C)CNC(=O)[C@@]12C[C@@H]3CN(CCc4ccccc4)[C@@H]([C@@H]3CN1)[C@H]2CC(C)C` (relative stereo) [IF-738], the IC50 was 10 to 30 µM.

Take `N=C(N)NCCC[C@@H]1[C@@H]2[C@@H]3CN[C@@]1(C(=O)NCc1cccc4ccccc14)C[C@@H]3CN2Cc1ccc(F)cc1` (relative stereo) [IF-297]: the IC50 is 10 to 30 µM.

`CC(C)CCN1CC2CC3CNC2(C(=O)NCc2ccccc2)C1C3CCC(=O)O` (centres unmarked) [IB-505]: the IC50 lay within 10 to 30 µM.

Regarding `Cc1ccc(CNC(=O)[C@@]23C[C@@H]4CN(CC(C)C)[C@@H]([C@@H]4C=N2)[C@H]3Cc2ccccc2)cc1` (relative stereo) [IIF-16], the IC50 lay within 10 to 30 µM.

Take `CC(C)C[C@@H]1[C@@H]2[C@@H]3CN[C@@]1(C(=O)NCc1cccc4ccccc14)C[C@@H]3CN2CC(N)=O` (relative stereo) [IF-81]: the IC50 is 10 to 30 µM.

On to `O=C(O)CCNC(=O)[C@]12NC[C@@H]3C[C@H]1CN(Cc1ccccc1)[C@H]2[C@@H]3Cc1cccc2ccccc12` (relative stereo) [IB-616], for which the IC50 was in the range of 10 to 30 µM.

As for `CC(C)CN1C[C@H]2C[C@]3(C(=O)NCc4ccccc4)NC[C@H]2[C@H]1[C@H]3Cc1ccccc1` (relative stereo) [IF-1, (3S*, 3aS*, 6S*, 7R*, 7aS*) -N, 7-dibenzyl-1-isobutyloctahydro-6H-3,6-methanopyrrolo[3,2-c]pyridine-6-carboxamide], the IC50 was 10 to 30 µM.

As to `CC(C)CC1C2C=NC3(C(=O)NCc4ccccc4)C(C2)CN(Cc2cccc(Cl)c2)C13` (centres unmarked) [IIB-84], the IC50 is less than 5 µM.

On to `CCCCCCNC(=O)C12NCC3CC1CN(CCO)C2C3CCC(C)C` (centres unmarked) [IB-490], for which the IC50 is less than 5 µM.

`CC(C)CNC(=O)[C@@]12C[C@@H]3CN(Cc4cccc5ccccc45)[C@@H]([C@@H]3CN1)[C@H]2CCCNC(=N)N` (relative stereo) [IF-235]: the IC50 is 10 to 30 µM.

Turning to `COc1ccc(CNC(=O)[C@@]23C[C@@H]4CN(CC(C)C)[C@@H]([C@@H]4C=N2)[C@H]3CCc2ccccc2)cc1` (relative stereo) [IIF-332], the IC50 was less than 5 µM.

Turning to `CCCCCCNC(=O)[C@@]12C[C@@H]3CN(Cc4ccccc4)[C@@H]([C@@H]3CN1)[C@H]2CC(C)C` (relative stereo) [IF-560], the IC50 is less than 5 µM.

Turning to `CC(C)CCNC(=O)[C@@]12C[C@@H]3CN(CC(C)C)[C@@H]([C@@H]3CN1)[C@H]2CCc1ccccc1` (relative stereo) [IF-673], the IC50 is less than 5 µM.

Regarding `CC(C)CC1C2CNC3(C(=O)NCc4ccccc4)C(C2)CN(Cc2ccc(N(C)C)cc2)C13` (centres unmarked) [IB-873], the IC50 was 5 to 10 µM.

Consider `NC(=O)CCNC(=O)C12NCC3CC1CN(CC1CCCCC1)C2C3CCc1ccccc1` (centres unmarked) [IB-710], for which the IC50 is less than 5 µM.

As to `CC(C)CN1C[C@@H]2C[C@H]3CN[C@]2(C(=O)NCCO)[C@@H]1[C@@H]3Cc1cccc2ccccc12` (relative stereo) [IB-687], the IC50 fell in the range of 10 to 30 µM.

Consider `O=C(NCCc1ccccc1)C12CC3CN(CC4CCCCC4)C(C3CN1)C2Cc1ccc(O)cc1` (centres unmarked) [IF-439], for which the IC50 is less than 5 µM.

For `CC(C)CCNC(=O)[C@@]12C[C@@H]3CN(CCc4ccccc4)[C@@H]([C@@H]3CN1)[C@H]2Cc1ccccc1` (relative stereo) [IF-744], the IC50 was less than 5 µM.

Take `CC(C)CC1C2C3C=NC1(C(=O)NCc1ccccc1)CC3CN2Cc1ccc(OC(F)(F)F)cc1` (centres unmarked) [IIF-96]: the IC50 lay in the range of 5 to 10 µM.

Turning to `CC(C)CC[C@@H]1[C@@H]2CN[C@@]3(C(=O)NCCc4ccccc4)[C@@H](C2)CN(CCO)[C@@H]13` (relative stereo) [IB-531], the IC50 is 10 to 30 µM.

Consider `O=C(O)CCN1CC2CC3CNC2(C(=O)NCc2ccc(F)cc2)C1C3Cc1ccccc1` (centres unmarked) [IB-394], for which the IC50 is 10 to 30 µM.

Regarding `CC(C)CN1C[C@@H]2C[C@H]3CN[C@]2(C(=O)NCCc2ccccc2)[C@@H]1[C@@H]3Cc1ccccc1` (relative stereo) [IB-12], the IC50 fell in the range of 10 to 30 µM.

For the compound `O=C(O)CCNC(=O)C12NCC3CC1CN(Cc1ccc(O)cc1)C2C3Cc1cccc2ccccc12` (centres unmarked) [IB-410], the IC50 lay in the range of 10 to 30 µM.

With `O=C(O)CCN1CC2CC3CNC2(C(=O)NCc2ccc(O)cc2)C1C3CCc1ccccc1` (centres unmarked) [IB-515], the IC50 was in the range of 10 to 30 µM.

In the case of `CC(C)NC(=O)[C@]12NC[C@@H]3C[C@H]1CN(CCCNC(=N)N)[C@H]2[C@@H]3CCc1ccccc1` (relative stereo) [IB-179], the IC50 was 10 to 30 µM.

In the case of `NC(=O)CN1C[C@H]2C[C@]3(C(=O)NCc4ccc(O)cc4)NC[C@H]2[C@H]1[C@H]3Cc1cccc2ccccc12` (relative stereo) [IF-137], the IC50 was less than 5 µM.

Consider `CC(C)CN1C[C@H]2C[C@]3(C(=O)NCc4ccccc4)NC[C@H]2[C@H]1[C@H]3Cc1cccc2ccccc12` (relative stereo) [IF-753], for which the IC50 was 10 to 30 µM.

`NC(=O)CN1CC2CC3(C(=O)NCc4cccc5ccccc45)NCC2C1C3Cc1cccc2ccccc12` (centres unmarked) [IF-91]: the IC50 was less than 5 µM.

For the compound `CC(C)CC[C@@H]1[C@@H]2CN[C@@]3(C(=O)NCc4ccccc4)[C@@H](C2)CN(CCC(=O)O)[C@@H]13` (relative stereo) [IB-694], the IC50 lay in the range of 10 to 30 µM.

Consider `CC(C)CNC(=O)[C@@]12C[C@@H]3CN(Cc4ccccc4)[C@@H]([C@@H]3CN1)[C@H]2Cc1ccccc1` (relative stereo) [IF-6], for which the IC50 lay in the range of 10 to 30 µM.

Consider `N=C(N)NCCCNC(=O)[C@]12NC[C@@H]3C[C@H]1CN(Cc1cccc4ccccc14)[C@H]2[C@@H]3CCc1ccccc1` (relative stereo) [IB-354], for which the IC50 is less than 5 µM.

In the case of `CCCCCCNC(=O)[C@@]12C[C@@H]3CN(Cc4cccc5ccccc45)[C@@H]([C@@H]3CN1)[C@H]2CCCNC(=N)N` (relative stereo) [IF-243], the IC50 was less than 5 µM.

On to `CC(C)CCNC(=O)[C@]12NC[C@@H]3C[C@H]1CN(CC1CCCCC1)[C@H]2[C@@H]3Cc1ccc(O)cc1` (relative stereo) [IB-648], for which the IC50 lay within 10 to 30 µM.

As to `CC(C)CC[C@@H]1[C@@H]2CN[C@@]3(C(=O)NCc4cccc5ccccc45)[C@@H](C2)CN(CC(N)=O)[C@@H]13` (relative stereo) [IB-84], the IC50 fell in the range of 10 to 30 µM.

For the compound `CC(C)CCNC(=O)[C@]12NC[C@@H]3C[C@H]1CN(CC(N)=O)[C@H]2[C@@H]3CCc1ccccc1` (relative stereo) [IB-102], the IC50 is less than 5 µM.

Turning to `CC(C)CCN1C[C@H]2C[C@]3(C(=O)NCCC(=O)O)NC[C@H]2[C@H]1[C@H]3Cc1cccc2ccccc12` (relative stereo) [IF-413], the IC50 was in the range of 10 to 30 µM.

Consider `CC(C)CCN1C[C@H]2C[C@]3(C(=O)NCc4ccc(O)cc4)NC[C@H]2[C@H]1[C@H]3Cc1cccc2ccccc12` (relative stereo) [IF-465], for which the IC50 was 10 to 30 µM.

On to `NC(=O)CC1C2C3CNC1(C(=O)NCc1cccc4ccccc14)CC3CN2CCc1ccccc1` (centres unmarked) [IF-223], for which the IC50 lay within 10 to 30 µM.

Take `CC(C)CC[C@@H]1[C@@H]2CN[C@@]3(C(=O)NCCO)[C@@H](C2)CN(CCc2ccccc2)[C@@H]13` (relative stereo) [IB-461]: the IC50 lay within 10 to 30 µM.

For the compound `CC(C)CC[C@@H]1[C@@H]2CN[C@@]3(C(=O)NCCC(N)=O)[C@@H](C2)CN(Cc2ccc(F)cc2)[C@@H]13` (relative stereo) [IB-365], the IC50 was 10 to 30 µM.

With `CC(C)CC1C2CNC3(C(=O)NCc4ccc(F)cc4)C(C2)CN(Cc2ccc(O)cc2)C13` (centres unmarked) [IB-499], the IC50 was less than 5 µM.

For the compound `CC(C)CCN1C[C@@H]2C[C@H]3CN[C@]2(C(=O)NCc2ccc(O)cc2)[C@@H]1[C@@H]3Cc1ccccc1` (relative stereo) [IB-577], the IC50 was 10 to 30 µM.

For the compound `CC(C)CC1C2C3CNC1(C(=O)NCc1ccc(F)cc1)CC3CN2Cc1ccccc1` (centres unmarked) [IF-807], the IC50 was less than 5 µM.

Staying with this test, now noted: read-out: IC50.
On to `Cc1ccc(CNC(=O)[C@@]23C[C@@H]4CN(CC(C)C)[C@@H]([C@@H]4C=N2)[C@H]3Cc2ccccc2)cc1` (relative stereo) [IIF-16], for which the IC50 came to 28.7 µM.

`CC(C)CN1C[C@H]2C[C@]3(C(=O)NCc4ccccc4)NC[C@H]2[C@H]1[C@H]3Cc1ccccc1` (relative stereo) [IF-1, (3S*, 3aS*, 6S*, 7R*, 7aS*) -N, 7-dibenzyl-1-isobutyloctahydro-6H-3,6-methanopyrrolo[3,2-c]pyridine-6-carboxamide]: the IC50 came out at 12.6 µM.

As to `CC(C)CN1C[C@@H]2C[C@H]3CN[C@]2(C(=O)NCCc2ccccc2)[C@@H]1[C@@H]3Cc1ccccc1` (relative stereo) [IB-12], the IC50 turned out to be 15.5 µM.

Turning to `CC(C)CNC(=O)[C@@]12C[C@@H]3CN(Cc4ccccc4)[C@@H]([C@@H]3CN1)[C@H]2Cc1ccccc1` (relative stereo) [IF-6], the IC50 stood at 16.3 µM.
